Changes are numbered by the printed parent chain.

Consider two compounds from PMC10522591, “Natural product P57 induces hypothermia through targeting pyridoxal kinase” (Nature Communications, 2023).

Assay [1] addresses T1, pyridoxal kinase (PDXK) (Homo sapiens, UniProt O00764).
T1 construct: wild-type full-length human PDXK, N-terminal His tag
T1 sequence (O00764 1-312): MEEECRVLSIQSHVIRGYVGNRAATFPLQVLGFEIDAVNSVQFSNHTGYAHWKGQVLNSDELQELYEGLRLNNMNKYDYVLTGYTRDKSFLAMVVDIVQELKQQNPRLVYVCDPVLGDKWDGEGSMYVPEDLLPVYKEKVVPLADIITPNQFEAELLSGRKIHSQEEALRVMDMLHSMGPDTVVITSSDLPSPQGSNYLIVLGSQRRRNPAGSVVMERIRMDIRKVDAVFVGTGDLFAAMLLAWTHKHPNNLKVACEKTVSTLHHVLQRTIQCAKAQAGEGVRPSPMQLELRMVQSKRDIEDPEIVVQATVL
Put plainly: initial velocity kinetics, ATP varied at fixed PL. The format is biochemical.

For assay [2], the target named is T2, pyridoxal kinase (PDXK) (Homo sapiens, UniProt O00764, D235A).
T2 construct: full-length human PDXK D235A, N-terminal His tag
T2 sequence (O00764 1-312 D235A): T1 sequence (O00764 1-312) with D235A
Put plainly: inhibition of purified mutant enzyme (Fig. S5g). Format: biochemical.

The target of assay [3] is T3, pyridoxal kinase (PDXK) (Mus musculus, UniProt Q8K183).
T3 construct: endogenous, mouse brain lysate
T3 sequence (Q8K183 1-312): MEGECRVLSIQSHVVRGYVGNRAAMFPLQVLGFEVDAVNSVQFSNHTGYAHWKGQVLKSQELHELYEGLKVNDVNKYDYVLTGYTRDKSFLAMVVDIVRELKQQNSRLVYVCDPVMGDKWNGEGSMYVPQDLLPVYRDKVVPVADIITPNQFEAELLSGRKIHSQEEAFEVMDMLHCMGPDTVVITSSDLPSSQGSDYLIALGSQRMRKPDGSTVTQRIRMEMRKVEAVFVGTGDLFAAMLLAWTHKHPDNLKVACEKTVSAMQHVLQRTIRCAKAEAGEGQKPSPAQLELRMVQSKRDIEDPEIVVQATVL
Description: competition of P57-Bio ([…]) affinity pull-down by P57 ([…]), Western blot. Format: cell-based. (A western blot detects proteins with antibodies after separation by electrophoresis.)

The target in assay [4] is T1, pyridoxal kinase (PDXK). Description: SPR (Biacore T200); also MST Kd =[…], and enzyme inhibition with EC50 […]. Format: binding. (SPR reads the build-up and loss of mass on a sensor chip optically.)

Turning to `Nc1ncnc2c1ncn2[C@@H]1O[C@H](COP(=O)(O)OP(=O)(O)OP(=O)(O)O)[C@@H](O)[C@H]1O` [ATP], the “initial velocity kinetics, ATP varied at fixed PL” value on pyridoxal kinase (PDXK) [1] was “PL concentration was fixed and the concentrations of ATP were varied showed that both Km and Vmax values decreased”.

As to `C/C=C(\C)C(=O)O[C@@H]1C[C@H]2[C@@H](CC=C3C[C@@H](O[C@H]4C[C@H](OC)[C@H](O[C@H]5C[C@H](OC)[C@H](O[C@@H]6O[C@H](C)[C@@H](O)[C@H](OC)[C@H]6O)[C@@H](C)O5)[C@@H](C)O4)CC[C@@]32C)[C@@]2(O)CC[C@H](C(C)=O)[C@@]12C` [P57], the “inhibition of purified mutant enzyme (Fig. S5g)” value at pyridoxal kinase (PDXK) [2] was “the D235A mutation can reduce the binding stability to a certain extent, and partly reducing the inhibitory activity”. Also, the “competition of P57-Bio (2.0 μM) affinity pull-down by P57 (20.0 μM), Western blo” value at pyridoxal kinase (PDXK) [3] was “immunoblotting showed GSTP1 and PDXK, but not neuromodulin, were sensitive to competition by excess P57”. The compound also showed a dissociation constant (Kd) at pyridoxal kinase (PDXK) [4] of 3.5 µM.

As a reminder, the Kd is the equilibrium constant for the complex coming apart. Read a low Kd as higher affinity.
